# Measurements as given in patent publication US10383948B2, “Anti-cMet antibody drug conjugates and methods for their use” (AbbVie Inc., priority 2016, dated 2019).
# Legend:
# NSCLC = experiment: Phase 1b combination with erlotinib; assay type: in vivo, human; settings: ABBV-399 2.7 mg/kg once every 21 days plus erlotinib 150 mg orally every day
# Source text: ABBV-399 will be combined with standard doses of erlotinib, cetuximab, bevacizumab or nivolumab starting at an ABBV-399 dose level below the MTD or MAD and then escalated no higher than MTD or MAD determined in the monotherapy dose-escalation/expansion. Dose limiting toxicity definitions will apply to the dose-escalation portion of each Combination.
# CTG-0178 NSCL PDX = experiment: Patient-derived xenograft, tumor growth delay; assay type: in vivo, NSG mice; settings: PDX CTG-0178 (NSCL); every seven days, six doses; median time to 1 cm^3 vs control
# Experimental: (§1) Tumor fragments of 3 to 5 mm^3 at passage 3 (P3) were implanted subcutaneously in the right rear flank of NSG mice (The Jackson Laboratory) with a trochar. ABBV-399 and ABT-700 PBD were administered every seven days for a total of six doses. […] For all groups, tumor volumes were plotted only for the duration that allowed the full set of animal to remain on study. If animals had to be taken off study, the remaining animals were monitored for tumor growth until they reached defined end-points.
# CTG-0387 colorectal PDX = experiment: Patient-derived xenograft, tumor growth delay; assay type: in vivo, NSG mice; settings: PDX CTG-0387 (Colorectal); every seven days, six doses; median time to 1 cm^3 vs control
# Experimental: as §1
# CTG-0058 colorectal PDX = experiment: Patient-derived xenograft, tumor growth delay; assay type: in vivo, NSG mice; settings: PDX CTG-0058 (Colorectal); every seven days, six doses; median time to 1 cm^3 vs control
# Experimental: as §1
# CTG-0170 NSCL PDX = experiment: Patient-derived xenograft, tumor growth delay; assay type: in vivo, NSG mice; settings: PDX CTG-0170 (NSCL); every seven days, six doses; median time to 1 cm^3 vs control
# Experimental: as §1
# CTG-0419 colorectal PDX = experiment: Patient-derived xenograft, tumor growth delay; assay type: in vivo, NSG mice; settings: PDX CTG-0419 (Colorectal); every seven days, six doses; median time to 1 cm^3 vs control
# Experimental: as §1
# CTG-0796 colorectal PDX = experiment: Patient-derived xenograft, tumor growth delay; assay type: in vivo, NSG mice; settings: PDX CTG-0796 (Colorectal); every seven days, six doses; median time to 1 cm^3 vs control
# Experimental: as §1
# CTG-0115 colorectal PDX = experiment: Patient-derived xenograft, tumor growth delay; assay type: in vivo, NSG mice; settings: PDX CTG-0115 (Colorectal); every seven days, six doses; median time to 1 cm^3 vs control
# Experimental: as §1
# CTG-0167 NSCL PDX = experiment: Patient-derived xenograft, tumor growth delay; assay type: in vivo, NSG mice; settings: PDX CTG-0167 (NSCL); every seven days, six doses; median time to 1 cm^3 vs control
# Experimental: as §1
# CTG-0358 colorectal PDX = experiment: Patient-derived xenograft, tumor growth delay; assay type: in vivo, NSG mice; settings: PDX CTG-0358 (Colorectal); every seven days, six doses; median time to 1 cm^3 vs control
# Experimental: as §1
# CTG-0117 colorectal PDX = experiment: Patient-derived xenograft, tumor growth delay; assay type: in vivo, NSG mice; settings: PDX CTG-0117 (Colorectal); every seven days, six doses; median time to 1 cm^3 vs control
# Experimental: as §1
# CTG-0164 NSCL PDX = experiment: Patient-derived xenograft, tumor growth delay; assay type: in vivo, NSG mice; settings: PDX CTG-0164 (NSCL); every seven days, six doses; median time to 1 cm^3 vs control
# Experimental: as §1
# CTG-0162 NSCL PDX = experiment: Patient-derived xenograft, tumor growth delay; assay type: in vivo, NSG mice; settings: PDX CTG-0162 (NSCL); every seven days, six doses; median time to 1 cm^3 vs control
# Experimental: as §1
# CTG-0176 NSCL PDX = experiment: Patient-derived xenograft, tumor growth delay; assay type: in vivo, NSG mice; settings: PDX CTG-0176 (NSCL); every seven days, six doses; median time to 1 cm^3 vs control
# Experimental: as §1
# CTG-0165 NSCL PDX = experiment: Patient-derived xenograft, tumor growth delay; assay type: in vivo, NSG mice; settings: PDX CTG-0165 (NSCL); every seven days, six doses; median time to 1 cm^3 vs control
# Experimental: as §1
# CTG-0406 colorectal PDX = experiment: Patient-derived xenograft, tumor growth delay; assay type: in vivo, NSG mice; settings: PDX CTG-0406 (Colorectal); every seven days, six doses; median time to 1 cm^3 vs control
# Experimental: as §1
# CTG-0084 colorectal PDX = experiment: Patient-derived xenograft, tumor growth delay; assay type: in vivo, NSG mice; settings: PDX CTG-0084 (Colorectal); every seven days, six doses; median time to 1 cm^3 vs control
# Experimental: as §1
# CTG-0062 colorectal PDX = experiment: Patient-derived xenograft, tumor growth delay; assay type: in vivo, NSG mice; settings: PDX CTG-0062 (Colorectal); every seven days, six doses; median time to 1 cm^3 vs control
# Experimental: as §1
# CTG-0652 colorectal PDX = experiment: Patient-derived xenograft, tumor growth delay; assay type: in vivo, NSG mice; settings: PDX CTG-0652 (Colorectal); every seven days, six doses; median time to 1 cm^3 vs control
# Experimental: as §1
# CTG-0440 colorectal PDX = experiment: Patient-derived xenograft, tumor growth delay; assay type: in vivo, NSG mice; settings: PDX CTG-0440 (Colorectal); every seven days, six doses; median time to 1 cm^3 vs control
# Experimental: as §1
# CTG-0382 colorectal PDX = experiment: Patient-derived xenograft, tumor growth delay; assay type: in vivo, NSG mice; settings: PDX CTG-0382 (Colorectal); every seven days, six doses; median time to 1 cm^3 vs control
# Experimental: as §1
# CTG-0159 NSCL PDX = experiment: Patient-derived xenograft, tumor growth delay; assay type: in vivo, NSG mice; settings: PDX CTG-0159 (NSCL); every seven days, six doses; median time to 1 cm^3 vs control
# Experimental: as §1
# CTG-0363 NSCL PDX = experiment: Patient-derived xenograft, tumor growth delay; assay type: in vivo, NSG mice; settings: PDX CTG-0363 (NSCL); every seven days, six doses; median time to 1 cm^3 vs control
# Experimental: as §1
substance,measurement,setting,value
ABBV-399: ADC comprised of the cMet targeting antibody ABT-700 conjugated to MMAE through a valine citrulline (vc) linker,patients with partial response,NSCLC,2/6
same,patients with progressive disease (new lesions),NSCLC,1/6
same,TGD (%) tumor growth delay,CTG-0178 NSCL PDX,0%
same,TGD (%) tumor growth delay,CTG-0387 colorectal PDX,0%
same,TGD (%) tumor growth delay,CTG-0058 colorectal PDX,71%
same,TGD (%) tumor growth delay,CTG-0170 NSCL PDX,336%
same,TGD (%) tumor growth delay,CTG-0419 colorectal PDX,54%
same,TGD (%) tumor growth delay,CTG-0796 colorectal PDX,78%
same,TGD (%) tumor growth delay,CTG-0115 colorectal PDX,114%
same,TGD (%) tumor growth delay,CTG-0167 NSCL PDX,0%
same,TGD (%) tumor growth delay,CTG-0358 colorectal PDX,94%
same,TGD (%) tumor growth delay,CTG-0117 colorectal PDX,0%
same,TGD (%) tumor growth delay,CTG-0164 NSCL PDX,25%
same,TGD (%) tumor growth delay,CTG-0162 NSCL PDX,88%
same,TGD (%) tumor growth delay,CTG-0176 NSCL PDX,71%
same,TGD (%) tumor growth delay,CTG-0165 NSCL PDX,170%
same,TGD (%) tumor growth delay,CTG-0406 colorectal PDX,0%
same,TGD (%) tumor growth delay,CTG-0084 colorectal PDX,0%
same,TGD (%) tumor growth delay,CTG-0062 colorectal PDX,0%
same,TGD (%) tumor growth delay,CTG-0652 colorectal PDX,350%
same,TGD (%) tumor growth delay,CTG-0440 colorectal PDX,12%
same,TGD (%) tumor growth delay,CTG-0382 colorectal PDX,126%
same,TGD (%) tumor growth delay,CTG-0159 NSCL PDX,288%
same,TGD (%) tumor growth delay,CTG-0363 NSCL PDX,0%
